Our source for the TEWL and Activity values is ChEMBL document CHEMBL1136611, “Design, synthesis, and evaluation of beta-galactosylceramide mimics promoting beta-glucocerebrosidase activity in keratinocytes” (2003).

The species entered for assay [1] is Mus musculus. Nature of the assay: […] effect on UVB-induced murine epidermal barrier disruption to control water loss in mice in experiment 1. In kind it is functional.
For assay [2], the species on record is Mus musculus. Nature of the assay: […] effect on UVB-induced murine epidermal barrier disruption to control water loss in mice in experiment 2. In kind it is functional.
In assay [3] the target is T1, Lysosomal acid glucosylceramidase (Homo sapiens) (UniProt P04062).
T1 sequence (whole entry): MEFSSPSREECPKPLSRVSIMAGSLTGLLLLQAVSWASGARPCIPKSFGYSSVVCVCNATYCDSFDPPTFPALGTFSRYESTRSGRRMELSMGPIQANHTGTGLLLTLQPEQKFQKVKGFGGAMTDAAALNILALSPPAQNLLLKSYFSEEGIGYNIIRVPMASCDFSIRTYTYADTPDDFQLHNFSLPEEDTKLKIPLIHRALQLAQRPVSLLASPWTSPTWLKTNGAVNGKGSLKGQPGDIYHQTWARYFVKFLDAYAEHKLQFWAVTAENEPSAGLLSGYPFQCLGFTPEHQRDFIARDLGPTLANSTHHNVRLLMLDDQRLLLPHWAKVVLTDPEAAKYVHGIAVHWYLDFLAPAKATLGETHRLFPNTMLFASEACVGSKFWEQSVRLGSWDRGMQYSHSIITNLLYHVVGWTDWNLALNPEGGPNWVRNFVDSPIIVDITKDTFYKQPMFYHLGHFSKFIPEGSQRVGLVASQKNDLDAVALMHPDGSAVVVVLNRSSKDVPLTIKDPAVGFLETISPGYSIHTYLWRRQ
Nature of the assay: In vitro beta--Glucocerebrosidase (beta-GlcCer'ase) activity in cultured human keratinocytes. The assay is classed as cell-based. More on the design: reference not given here.

In the case of `CCCCCCCCCCCCCCCCCC(=O)N[C@@H](CO[C@@H]1O[C@@H](CO)C(O)[C@H](O)[C@@H]1O)C(=O)NCCCCCC` (single isomer, unassigned), the TEWL is 2.01 in the assay filed under Mus musculus [1] and 2.19 in the assay listed under Mus musculus [2]. The same molecule came in with an Activity in assay [3] of 1.42.

`CCCCCCCCCCCCCCCC(=O)N[C@@H](CO[C@@H]1O[C@@H](CO)C(O)[C@H](O)[C@@H]1O)C(=O)NCCCCCCCCCCCCCC` (single isomer, unassigned) registered an Activity in assay [3] of 1.37.

In assay [3], `CCCCCCCCCCCCCCCCCC(=O)N[C@@H](CO[C@@H]1O[C@@H](CO)C(O)[C@H](O)[C@@H]1O)C(=O)NCCCCCCCCCC` (single isomer, unassigned) had an Activity of 1.2.

`CCCCCCCCCCCCCCCCCC(=O)N[C@@H](CO[C@@H]1O[C@@H](CO)C(O)[C@H](O)[C@@H]1O)C(=O)NCCCCCCCCCCCCCC` (single isomer, unassigned) registered an Activity in assay [3] of 1.24.

In assay [3], `CCCCCCCCCCCCCCNC(=O)[C@H](CO[C@@H]1O[C@@H](CO)C(O)[C@H](O)[C@@H]1O)NC(=O)CCCCCCC` (single isomer, unassigned) yielded an Activity of 0.87.
